Reference: patent US5053416A, “Derivatives of 1,2,5,6-tetrahydropyridine substituted by a thiazolyl or oxazolyl radical, their use as medicaments and compositions containing them” (Roussel Uclaf, priority 1988, dated 1991)
Read-outs that look alike come from different tables or passages of the source.

Assays:
[1] = in vivo; details: mouse, male mice, oral route, mortality during 7 days following treatment
Description: The test is carried out on male mice (CD1 Charles Rivers) of 22 to 24 g, without food for 16 hours. […] The mortality is noted during the 7 days following treatment.

[2] = tested on: isolated ileum of a guinea-pig; experiment: Test on the isolated ileum of a guinea-pig (contraction, agonist activity); details: Cavia porcellus, read-out: pD2 (converted)
Description: Fragments of the ileum of guinea-pigs killed by decapitation are removed. […] The contractions caused by the products are recorded using a sensor connected to a polygraph. The products under test are added, at concentrations comprised between 1.10^-3 M and 1.10^-8 M/l.
The products presenting a contracting effect are tested vis-a-vis atropine and hexamethonium to establish if the activity is of "muscarinic" or "nicotinic" type.
The possible antagonist activity of the products is tested vis-a-vis acetylcholine.
The agonist activity is expressed in pD2 (negative logarithm of the dose which produces 50% of the maximum effect).

[3] = tested on: male mice (CD1 Charles Rivers); experiment: Hypothermic activity (rectal body temperature); type: in vivo; details: Mus musculus; for ED (1 C fall in body temperature): sc, read-out: Effective dose (-1° C.) SC.R.; for ED (-1 C): read-out: Effective dose (-1° C.) O.R.
Description: The test is carried out on male mice (CD1 Charles Rivers) weighing 25 to 30 g, without food for 6 hours.
The body temperature is noted by means of a thermocouple placed about 1.5 cm inside the rectum and connected to an electric temperature recorder.
The products are administered by oral or sub-cutaneous route and the temperatures are noted at 0 and 30 minutes, one hour, 2 hours and 2 hours 30 minutes after treatment.
The degree of hypothermia is evaluated as the difference between the treated animals and the controls and the dose necessary to reduce the body temperature by 1° C. is determined.

[4] = tested on: male mice (CD1 Charles Rivers); experiment: Diarrhoeic activity, oral; details: for ED50: Mus musculus, po, read-out: DE50
Description: The test is carried out on male mice (CD1 Charles Rivers) weighing 25 to 30 g, without food for 6 hours. The product at 5% in methocel is administered by oral route, by means of an oesophagus probe.
Control animals receive only the excipient.
The sheets of absorbent paper are changed after each observation.
1: slightly soft faeces with or without moist circle,
2: slightly soft faeces with presence of a well-defined moist circle,
3: soft faeces with presence of a large moist circle,
4: faeces without consistency with presence of a very large moist circle.

[5] = negative logarithm of the dose which produces 50% of the maximum effect, Tyrode's solution at 37° C.
[6] = sub-cutaneous route, dose necessary to reduce the body temperature by 1° C.
[7] = oral route, dose necessary to reduce the body temperature by 1° C.

SMILES | LD50 at 168 h [1] | EC50 [2, 5] | ED (1 C fall in body temperature) [3, 6] | ED (-1 C) [3, 7] | ED50 [4] | EC50 [2] | ED (-1 C) ([3]; po) | ED (1 C fall in body temperature) [3] | DE50 ([4]; male mice, oral route, dose which causes diarrhoea in 50% of the animals)
Cc1cnc(C2=CCCNC2)o1.Cl [Example 8, 3-(5-methyloxazol-2-yl)-1,2,5,6-tetrahydropyridine hydrochloride] | 500 mg/kg | 5890 nM | 25 mg/kg | 24 mg/kg | – | – | – | – | –
ON1CCC=C(c2ncco2)C1 [Example 10, 1-hydroxy-3-(oxazol-2-yl)-1,2,5,6-tetrahydropyridine] | 300 mg/kg | > 100000 nM | 4.1 mg/kg | 4.2 mg/kg | 10 mg/kg | – | – | – | –
C1=C(c2ncco2)CNCC1.Cl [Example 6, 3-(oxazol-2-yl)-1,2,5,6-tetrahydropyridine hydrochloride] | 200 mg/kg | 1950 nM | 3.2 mg/kg | 3.2 mg/kg | 15 mg/kg | – | – | – | –
COC(=O)C1=CCCN(C)C1 [Aerocoline, HBr, reference compound] | – | – | – | – | – | 331 nM | 194 mg/kg | 3 mg/kg | 35 mg/kg
Cc1coc(C2=CCCNC2)n1.Cl [Example 2, 3-(4-methyloxazol-2-yl)-1,2,5,6-tetrahydropyridine hydrochloride] | 125 mg/kg | 1070 nM | 1.7 mg/kg | 2.6 mg/kg | 3 mg/kg | – | – | – | –
